Reference: US8722663B2, “Di-substituted pyridine derivatives as anticancers” (Otsuka Pharmaceutical Co., Ltd., priority 2010, dated 2014)
Counter-ions that a name gives are not always drawn.

Tests used:
[1] = tested on: human prostate (carcinoma) cell line (DU 145); test: Growth inhibition of DU 145 cells, WST-8 assay; format: cell-based; conditions: 120 h, 5 days with test compound
Method: (§1) The growth inhibition on a bicalutamide resistant human prostate cancer cell line established from LNCaP.FGC (LNCaP-Bic) (Hobisch A, et al. Prostate. 2006; 66(4):413-20.) was determined by a WST-8 assay according to the method of Singh A K, et al. (Cancer Lett. 1996 Oct. 1; 107(1): 109-15.). In this method, LNCaP-Bic cells were seeded in RPMI 1640 medium containing 10% fetal bovine serum in a 96-well microplate and incubated at 37° C. for 24 hours in the presence of 5% carbon dioxide. Then, the test compound was added and the cells were incubated for another 5 days. After incubation, a 15-μL volume of WST-8 (2-(2-methoxy-4-nitrophenyl)-3-(4-nitrophenyl)-5-(2,4-[…])-2H-tetrazolium, monosodium salt) was added. After the incubation for the time, the color reaction was stopped by adding 15 μL of 1% SDS (sodium dodecyl sulfate) solution and the optical density was determined at the measurement wavelength of 450 nm and the reference wavelength of 630 nm, and the difference was calculated. The cell growth activity in each well was defined as the value determined by subtracting the OD in the control well not containing cells (the difference in absorbance between 450 nm and 630 nm) from that in the test well.
(§2) The 50% inhibitory concentration (IC50 (nM)) of the test compound was determined by comparing the cell growth activity in the well containing the test compound with that of the control not containing the test compound.
The growth inhibition on a human prostate (carcinoma) cell line (DU 145) (van Bokhoven A, et al. Prostate. 2003; 57(3):205-25.) was also determined by the above method.

[2] = tested on: human prostate (adenocarcinoma) cell line (PC-3); test: Growth inhibition of PC-3 cells, WST-8 assay; format: cell-based; conditions: 120 h, 5 days with test compound
Method: as §1, §2
The growth inhibition on a human prostate (adenocarcinoma) cell line (PC-3) (van Bokhoven A, et al. Prostate. 2003; 57(3):205-25.) was also determined by the above method.

[3] = tested on: human prostate (carcinoma) cell line (LNCaP.FGC); test: Growth inhibition of LNCaP.FGC cells, WST-8 assay; format: cell-based; conditions: 120 h, 5 days with test compound
Method: as §1, §2
The growth inhibition on a human prostate (carcinoma) cell line (LNCaP.FGC) (van Bokhoven A, et al. Prostate. 2003; 57(3):205-25.) was also determined by the above method.

[4] = tested on: human prostate (adenocarcinoma) cell line (VcaP); test: Growth inhibition of VcaP cells, WST-8 assay; format: cell-based; conditions: 120 h, 5 days with test compound
Method: as §1, §2
The growth inhibition on a human prostate (adenocarcinoma) cell line (VcaP) (Korenchuk S, et al. In Vivo. 2001; 15(2):163-8.) was also determined by the above method.

[5] = tested on: bicalutamide resistant human prostate cancer cell line established from LNCaP.FGC (LNCaP-Bic); test: Growth inhibition of LNCaP-Bic cells, WST-8 assay; format: cell-based; conditions: 120 h, 5 days with test compound
Method: as §1, §2

| SMILES | IC50 [1] | IC50 [2] | IC50 [3] | IC50 [4] | IC50 [5] | melting point |
| --- | --- | --- | --- | --- | --- | --- |
| COc1ccc(COc2ccc(Oc3c(C)cc(/C=C/C(=O)N4CCN(Cc5ccc(/C=C/COc6ccc(C)cc6)cc5)CC4)cc3C)nc2)cc1 [Example 1, (2E)-3-[4-({5-[(4-methoxybenzyl)oxy]pyridin-2-yl}oxy)-3,5-dimethylphenyl]-1-(4-{4-[(1E)-3-(4-methylphenoxy)prop-1-en-1-yl]benzyl}piperazin-1-yl)prop-2-en-1-one] | < 10 nM | < 10 nM | < 10 nM | < 10 nM | < 10 nM | 130 to 132 °C |
| Cc1ccc(COc2ccc(Oc3c(C)cc(/C=C/C(=O)N4CCN(Cc5ccc(CCOc6ccc(F)cc6)cc5)[C@@H](C)C4)cc3Cl)nc2)cc1 [Example 392, (E)-3-[3-chloro-5-methyl-4-({5-[(4-methylbenzyl)oxy]pyridin-2-yl}oxy)phenyl]-1-[(3S)-4-{4-[2-(4-fluorophenoxy)ethyl]benzyl}-3-methylpiperazin-1-yl]prop-2-en-1-one] | < 10 nM | < 10 nM | < 10 nM | < 10 nM | < 10 nM |  |
| CC(C)c1ccc(OCCc2ccc(CN3CCN(C(=O)/C=C/c4ccc(Oc5ccc(OCc6ccc(C#N)cc6)cn5)c(F)c4)CC3)cc2)cc1 [Example 593, 4-({[6-(2-Fluoro-4-{(E)-3-oxo-3-[4-(4-{2-[4-(propan-2-yl)phenoxy]ethyl}benzyl)piperazin-1-yl]prop-1-en-1-yl}phenoxy)pyridin-3-yl]oxy}methyl)benzonitrile hydrochloride] | < 10 nM | < 10 nM | < 10 nM | < 10 nM | < 10 nM |  |
| CCOc1cccc(OCCc2ccc(CN3CCN(C(=O)/C=C/c4cc(C)c(Oc5ccc(OCc6cncs6)cn5)c(C)c4)CC3)cc2)c1.Cl [Example 594, (E)-3-(3,5-Dimethyl-4-{[5-(1,3-thiazol-5-ylmethoxy)pyridin-2-yl]oxy}phenyl)-1-(4-{4-[2-(3-ethoxyphenoxy)ethyl]benzyl}piperazin-1-yl)prop-2-en-1-one hydrochloride] | < 10 nM | < 10 nM | < 10 nM | < 10 nM | < 10 nM | 190.4 to 191.8 °C |
| Cc1cc(/C=C/C(=O)N2CCN(Cc3ccc(CCOc4ccc(C(C)C)cc4)cc3)CC2)cc(C)c1Oc1ccc(OCc2cncs2)cn1.Cl [Example 595, (E)-3-(3,5-Dimethyl-4-{[5-(1,3-thiazol-5-ylmethoxy)pyridin-2-yl]oxy}phenyl)-1-[4-(4-{2-[4-(propan-2-yl)phenoxy]ethyl}benzyl)piperazin-1-yl]prop-2-en-1-one hydrochloride] | < 10 nM | < 10 nM | < 10 nM | < 10 nM | < 10 nM | 199.2 to 200.9 °C |
| Cc1ccc(OCCc2ccc(CN3CCN(C(=O)/C=C/c4cc(C)c(Oc5ccc(OCc6cscn6)cn5)c(C)c4)CC3)cc2)cc1 [Example 601, (E)-3-(3,5-Dimethyl-4-{[5-(1,3-thiazol-4-ylmethoxy)pyridin-2-yl]oxy}phenyl)-1-(4-{4-[2-(4-methylphenoxy)ethyl]benzyl}piperazin-1-yl)prop-2-en-1-one hydrochloride] | < 10 nM | < 10 nM | < 10 nM | < 10 nM | < 10 nM |  |
| COc1ccc(COc2ccc(Oc3c(C)cc(/C=C/C(=O)N4CCN(Cc5ccc(CCOc6ccc(C)cc6)cc5C)CC4)cc3C)nc2)cc1 [Example 611, (E)-3-[4-({5-[(4-Methoxybenzyl)oxy]pyridin-2-yl}oxy)-3,5-dimethylphenyl]-1-(4-{2-methyl-4-[2-(4-methylphenoxy)ethyl]benzyl}piperazin-1-yl)prop-2-en-1-one hydrochloride] | < 10 nM | < 10 nM | < 10 nM | < 10 nM | < 10 nM |  |
| Cc1cc(/C=C/C(=O)N2CCN(Cc3ccc(CCOc4ccc(C(F)(F)F)cn4)cc3)CC2)cc(Cl)c1Oc1ccc(OCc2ccc(C#N)cc2)cn1.Cl [Example 613, 4-{[(6-{2-Chloro-6-methyl-4-[(E)-3-oxo-3-{4-[4-(2-{[5-(trifluoromethyl)pyridin-2-yl]oxy}-ethyl)benzyl]piperazin-1-yl}prop-1-en-1-yl]phenoxy}pyridin-3-yl)oxy]methyl}benzonitrile hydrochloride] | < 10 nM | < 10 nM | < 10 nM | < 10 nM | < 10 nM | 193.7 to 194.2 °C |
| Cc1ccc(OCCCc2ccc(CN3CCN(C(=O)/C=C/c4cc(C)c(Oc5ccc(OCc6ccc(C#N)cc6)cn5)c(Cl)c4)CC3)cc2)cc1.Cl [Example 621, 4-{[(6-{2-Chloro-6-methyl-4-[(E)-3-(4-{4-[3-(4-methylphenoxy)propyl]benzyl}piperazin-1-yl)-3-oxoprop-1-en-1-yl]phenoxy}pyridin-3-yl)oxy]methyl}benzonitrile hydrochloride] | < 10 nM | < 10 nM | < 10 nM | < 10 nM | < 10 nM | 193 to 194.8 °C |

Second part, the molecule after the results:

| IC50 [1] | IC50 [2] | IC50 [3] | IC50 [4] | IC50 [5] | melting point | SMILES |
| --- | --- | --- | --- | --- | --- | --- |
| < 10 nM | < 10 nM | < 10 nM | < 10 nM | < 10 nM | 224.7 to 224.8 °C | Cc1ccc(COc2ccc(Oc3c(C)cc(/C=C/C(=O)N4CCN(Cc5ccc(CCOc6ccc(Cl)cc6)cc5)CC4)cc3Cl)nc2)cc1F.Cl [Example 427, (E)-3-[3-Chloro-4-({5-[(3-fluoro-4-methylbenzyl)oxy]pyridin-2-yl}oxy)-5-methylphenyl]-1-(4-{4-[2-(4-chlorophenoxy)ethyl]benzyl}piperazin-1-yl)prop-2-en-1-one hydrochloride] |
| < 10 nM | < 10 nM | < 10 nM | < 10 nM | < 10 nM | 224 to 224.5 °C | Cc1cc(/C=C/C(=O)N2CCN(Cc3ccc(CCOc4ccc(F)cc4)cc3)CC2)cc(Cl)c1Oc1ccc(OCc2ccccc2F)cn1.Cl [Example 447, (E)-3-[3-Chloro-4-({5-[(2-fluorobenzyl)oxy]pyridin-2-yl}oxy)-5-methylphenyl]-1-(4-{4-[2-(4-fluorophenoxy)ethyl]benzyl}piperazin-1-yl)prop-2-en-1-one hydrochloride] |
| < 10 nM | < 10 nM | < 10 nM | < 10 nM | < 10 nM |  | Cc1ccc(OCCc2ccc(CN3CCN(C(=O)/C=C/c4cc(C)c(Oc5ccc(OCc6ccccc6F)cn5)c(Cl)c4)CC3)cc2)cc1 [Example 451, (E)-3-[3-Chloro-4-({5-[(2-fluorobenzyl)oxy]pyridin-2-yl}oxy)-5-methylphenyl]-1-(4-{4-[2-(4-methylphenoxy)ethyl]benzyl}piperazin-1-yl)prop-2-en-1-one hydrochloride] |
| < 10 nM | < 10 nM | < 10 nM | < 10 nM | < 10 nM |  | Cc1ccc(OCCc2ccc(CN3CCN(C(=O)/C=C/c4cc(C)c(Oc5ccc(OCc6ccccc6Cl)cn5)c(Cl)c4)CC3)cc2)cc1 [Example 452, (E)-3-[3-Chloro-4-({5-[(2-chlorobenzyl)oxy]pyridin-2-yl}oxy)-5-methylphenyl]-1-(4-{4-[2-(4-methylphenoxy)ethyl]benzyl}piperazin-1-yl)prop-2-en-1-one hydrochloride] |
| < 10 nM | < 10 nM | < 10 nM | < 10 nM | < 10 nM |  | Cc1cc(/C=C/C(=O)N2CCN(Cc3ccc(CCOc4ccc(Cl)cc4)cc3)CC2)cc(Cl)c1Oc1ccc(OCc2ccccc2Cl)cn1 [Example 466, (E)-3-[3-Chloro-4-({5-[(2-chlorobenzyl)oxy]pyridin-2-yl}oxy)-5-methylphenyl]-1-(4-{4-[2-(4-chlorophenoxy)ethyl]benzyl}piperazin-1-yl)prop-2-en-1-one hydrochloride] |
| < 10 nM | < 10 nM | < 10 nM | < 10 nM | < 10 nM | 178.2 to 178.9 °C | Cc1cc(/C=C/C(=O)N2CCN(Cc3ccc(CCOc4ccc(C(C)C)cc4)cc3)CC2)ccc1Oc1ccc(OCc2ccccc2Cl)cn1.Cl [Example 507, (E)-3-[4-({5-[(2-Chlorobenzyl)oxy]pyridin-2-yl}oxy)-3-methylphenyl]-1-[4-(4-{2-[4-(propan-2-yl)phenoxy]ethyl}benzyl)piperazin-1-yl]prop-2-en-1-one hydrochloride] |
